The values that follow are results of earlier work, collected in patent US20110052727A1, “Anti Influenza Nutritional Supplements” (priority 2009, published 2011).

Like-named read-outs stand apart in the source and are kept apart here.

One may read the CC50 as the concentration at which the toxic effect on the cells reaches its halfway point.

For series [1], the system named is influenza A/PR/8 virus.
Series [2] relates to influenza A/Kumamoto/1/65 virus.
Series [3] concerns influenza A/WS/33 virus.
Series [4] has as its system MDCD cells. The settings on record: 100 μg/ml.
Series [5] has as its system MDCK cells. The settings on record: up to 1 mM.
For series [6], the system named is influenza virus A/Puerto Rico/8/34 (H1N1).
Series [7] concerns influenza virus A/Udorn/317/72(H3N2). The settings on record: quercetin orally 1 mg/day for 5 consecutive days.
The test system of series [8] is influenza A Bangkok 1/79. The settings on record: Se- vs Se+ conditions; 24 hours post infection.
Series [9] relates to influenza A/Bangkok/1/79 virus. The settings on record: selenium adequate diet, vs deficient diet still severe at day 21.
The subject of series [10] is influenza A/Chile/1/83 (H1N1) virus. The settings on record: MDCK cells; read-out: 50% effective inhibition concentration (EC50).
Series [11] shares this test system. The settings on record: 500 μM.
Series [12] addresses neuraminidase. The settings on record: read-out: concentration for reduction of half enzymatic activity (neuraminidase).
In series [13] the test system is MDCK cells. The settings on record: read-out: dose that reduced cell viability about 50% (CC50).
For series [14], the system named is influenza A/Chile/1/83 (H1N1) virus. The settings on record: compared with ECG and EGC.
Series [15] relates to MDCK cells.
In series [16] the test system is Influenza A Virus (Strain A/Yamagata/120/86 H1N1). The settings on record: 1.5 μM; 60 min treatment.

For `O=C/C=C/c1ccccc1` [CA, trans-cinnamaldehyde], the “virus yield of control (maximum inhibitory effect)” value in [1] (40 μM, treatment given 3 hours post infection) is recorded as 29.7%. Moreover, in [1] (200 μM), the virus yield entry was “undetectable level”.
Regarding `CC1(C)[C@@H](O[C@H]2O[C@H](C(=O)O)[C@@H](O)[C@H](O)[C@H]2O[C@@H]2O[C@H](C(=O)O)[C@@H](O)[C@H](O)[C@H]2O)CC[C@]2(C)[C@H]3C(=O)C=C4[C@@H]5C[C@@](C)(C(=O)O)CC[C@]5(C)CC[C@@]4(C)[C@]3(C)CC[C@@H]12` [Glycyrrhizin], in series [2] (10 mg/kg 1 day before and 1 and 4 days post infection, 10-50% lethal doses, saline controls no survivors), the survival entry is given as “survived over the 21-day experimental period”. Also, the “virus titers in the lungs, times lower than control mice” value in series [2] (2 to 6 days after the infection) is “more than 10 times”. Moreover, the “viral activity in the lungs” value in series [2] (day 6) is recorded as “not detected”.
Regarding `CCOC(=O)C1=C[C@@H](OC(CC)CC)[C@H](NC(C)=O)[C@@H](N)C1` [Oseltamivir, reference compound], the antiviral activity result in [3] (100 μg/ml, 2 days incubation) was “about 58%”; in [3] (concentrations of less than 10 μg/ml) it was “less than 49%”. Also, the cell viability result in [4] is given as “about 100%”.
On to `C[C@@H]1O[C@@H](Oc2c(-c3ccc(O)c(O)c3)oc3cc(O)cc(O)c3c2=O)[C@H](O)[C@H](O)[C@H]1O` [Q3R, quercetin 3-rhamnoside], for which the antiviral activity entry in series [3] (10 μg/ml, 2 days incubation) is recorded as “about 66%”; in [3] (100 μg/ml, 2 days incubation) it was “about 86%”. Also, in series [4], the cell viability entry is listed as “about 100%”.
`NC(=O)c1c[se]c([C@@H]2O[C@H](CO)[C@@H](O)[C@H]2O)n1` [Selenazofurin, selenazofurin]: in series [5], the “cytotoxic effect on cells” value was “no cytotoxic effect”.
In the case of `O=c1c(O)c(-c2ccc(O)c(O)c2)oc2cc(O)cc(O)c12` [quercetin, Quercetin], in series [6] (quercetin 12.5 mg/kg via gavage for 7 days before viral challenge, 21 days monitoring), the “decrease of mortality in the control group (infected and did not exercise)” value is on record as 22%. In series [6] (quercetin 12.5 mg/kg via gavage for 7 days, P<0.05), the “susceptibility to infection (morbidity, mortality, symptom severity on days 5-7) associated with stressful exercise” value is “offset the increase in susceptibility to infection”. In [7], the “epithelial damage and leukocytic influx” value is “significantly reduced”; the “superoxide radicals production levels” value is reported as “significantly reduced their levels”. The “lipid peroxidation (LPO) products level after supplementation (raised by 85% in influenza group vs normal control)” value in series [7] (P<0.05) is recorded as 43%.
Consider `[Se]` [selenium, Selenium], for which the influenza-induced apoptosis result in series [8] is “Se deficiency enhanced influenza-induced apoptosis”. In addition, the lung pathology result in series [9] was “began to diminish after day 6”.
Consider (−)-epigallocatechin gallate [EGCG], for which, in series [10], the EC50 is 22 to 28 µM. The “inhibition of viral RNA synthesis” value in series [11] is reported as “about 80%”. Moreover, the IC50 in series [12] was about 350 µM. In series [13], the CC50 was 275 ± 22.8 µM. Moreover, the hemagglutination inhibition activity entry in series [14] was “most effective”. For the same compound, in series [15], the “toxicity relative to derivatives” value is reported as “less toxic than most of its derivatives”. Further, in series [16], the “inhibition of plaque forming activity” value is about 100%.
